Data published in patent publication US4435566A, “Thiopyranopyrimidine compounds and acid addition salts thereof” (Maruko Seiyaku Co., Ltd., priority 1982, dated 1984).
Entries after “also recorded” stand apart in the source; their conditions may differ. Like-named read-outs stand apart in the source and are kept apart here.

Assays:
platelet aggregation = assay: Inhibition of platelet aggregation in platelet-rich plasma (aggregometer); assay type: cell-based, rabbits (male); conditions: for IC50: Oryctolagus cuniculus, Platelet; for Percent Inhibition, Collagen: Collagen (5 × 10^-4 g/ml)
Procedure: A blood sample drawn from a jugular vein of unanesthetized male rabbits (body weight: 2.2 to 2.6 kg) was mixed with a 3.8% aqueous sodium citrate solution in a proportion of 9:1 (by volume) and the mixture was centrifuged at 1,000 rpm for 10 minutes to obtain a platelet-rich plasma (about 5×10^5 platelets/mm^3, hereinafter "PRP"). To […] of PRP was added […] of an aqueous solution of the test compound and, after 2 hours, to the mixture was added either an adenosine diphosphate (ADP) solution (final concentration: 5×10^-6 M), a sodium arachidonate solution (final concentration: 5×10^-4 M) or collagen. The percent platelet aggregation was determined using an aggregometer and the inhibition of platelet aggregation by the test compound was calculated.

Alloxan Diabetes Mice [1] = assay: Hypoglycemic activity (a): effect on alloxan diabetes mice, blood sugar 2 hours after oral administration; assay type: in vivo, mice (ddY male); conditions: for % Change in Blood Sugar Level / Blood Sugar Level Mean ± S.E.: 2 hours after administration; for Blood Sugar Level Mean ± S.E.: alloxan 40 mg/kg i.v.
Procedure: Alloxan was administered intravenously at a dose of 40 mg/kg from a tail vein to ddY male mice weighing 28.2 to 29.5 g. Seven days after administration, the test compound was administered orally to the mice and the blood sugar level was determined before and 2 hours after the administration of the test compound.

Alloxan Diabetes Rats [2] = assay: Hypoglycemic activity (b)(1): effect on alloxan diabetes rats, blood sugar 2 hours after oral administration; assay type: in vivo, rats (Wister male); conditions: for % Change in Blood Sugar Level / Blood Sugar Level Mean ± S.E.: 2 hours after administration; for Blood Sugar Level Mean ± S.E.: alloxan 30 mg/kg i.v.
Procedure: (1) Alloxan was administered intravenously at a dose of 30 mg/kg from a tail vein to Wister male rats weighing 200 to 218 g. Three days after administration, the test compound was administered orally to the rats and the blood sugar level was determined before and 2 hours after administration of the test compound.

Alloxan Diabetes Mice [3] = assay: Hypoglycemic activity (c): effect on alloxan diabetes mice, ED20; assay type: in vivo, mice (ddY male); conditions: Mus musculus; oral; 3 hours after administration; alloxan 50 mg/kg i.v.
Procedure: (§1) Alloxan was administered intravenously at a dose of 50 mg/kg from a tail vein to 5W ddY male mice weighing 23 to 27 g (10 […] per group). Seven days after administration, the test compound was administered orally to the mice and a blood sample was collected from the sacrificed mice after 3 hours. The blood sugar level of the sample was determined by the o-toluidine-boric acid method. The percent inhibition was calculated from the values in test group and the control, and a 20% inhibitory effective dose (ED20) was determined from a dose response curve.

Normal Mice = assay: Hypoglycemic activity (d): effect on normal mice, ED20; assay type: in vivo, mice (ddY male); conditions: Mus musculus; oral; 3 hours after administration
Procedure: as §1
The test compound was administered orally to 6W ddY male mice and, 3 hours after administration, a blood sample was drawn from the sacrificed mice. The blood sugar level of the sample was determined and ED20 values were calculated in the same manner as described in (c) above.

[4] = Acute toxicity (Behrens-Karber method); conditions: mouse, in vivo, mortality one week after administration
Procedure: The test compound was administered orally (p.o.) or intravenously (i.v.) from a tail vein to ddY male mice weighing 24±2 g. The LD50 values were calculated by the Behrens-Karber method [Arch. exp. Path. Pharmak., 177, 379 (1935)] from the mortality one week after administration.

[5] = biological target: T1, ileum of Hartley male guinea pig (histamine) (Cavia porcellus, UniProt P31389); assay: Anti-histamine activity on isolated ileum (Magnus tube, cumulative technique); conditions: for Kb: Tyrode solution, 25±0.5° C., histamine added after 5 minutes, read-out: pA2 Value (converted)
T1 construct: The ileum of Hartley male guinea pig (body weight: 350-400 g) was extracted and suspended in a Magnus tube; from tissue; host or cells: isolated ileum of Hartley male guinea pig
T1 sequence (P31389 whole entry): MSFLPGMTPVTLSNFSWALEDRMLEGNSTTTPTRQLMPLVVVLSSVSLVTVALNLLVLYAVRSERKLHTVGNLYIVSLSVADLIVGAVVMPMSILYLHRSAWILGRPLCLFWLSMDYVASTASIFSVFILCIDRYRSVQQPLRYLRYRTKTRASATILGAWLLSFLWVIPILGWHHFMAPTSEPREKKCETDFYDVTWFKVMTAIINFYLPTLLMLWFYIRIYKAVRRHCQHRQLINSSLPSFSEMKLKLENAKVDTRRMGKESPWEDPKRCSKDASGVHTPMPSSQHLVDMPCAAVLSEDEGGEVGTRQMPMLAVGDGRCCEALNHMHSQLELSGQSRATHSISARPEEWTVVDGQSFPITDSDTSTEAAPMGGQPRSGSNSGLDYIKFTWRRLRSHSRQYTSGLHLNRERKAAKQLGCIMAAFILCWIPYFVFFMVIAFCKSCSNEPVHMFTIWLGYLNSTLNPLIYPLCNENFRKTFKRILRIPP
Procedure: The ileum of Hartley male guinea pig (body weight: 350-400 g) was extracted and suspended in a Magnus tube containing 40 ml of Tyrode solution and the muscle movement was recorded on a soot paper via an isotonic Hebel. The solution in the Magnus tube was maintained at 25±0.5° C. during the test and test compound was previously added to the solution.

Alloxan Diabetes Rats [6] = assay: Hypoglycemic activity (b)(2): effect on alloxan diabetes rats, time course of blood sugar (o-toluidine-boric acid method); assay type: in vivo, rats (Wister male); parameters: unit not given here; conditions: 100 mg/kg, oral
Procedure: (2) Alloxan was administered intravenously at a dose of 18 mg/kg to 9-10W Wister male rats weighing 240 to 280 g. Three days after administration, the test compound was administered orally to the rats (after fasting for 4 hours) and the blood sugar level was determined before and 1, 2 and 3 hours after administration of the test compound with respect to the blood samples drawn from the jugular vein by the o-toluidine-boric acid method.

[7] = rabbit PRP, sodium arachidonate final concentration 5×10^-4 M, read-out: OC50, Arachidonic Acid
[8] = rabbit PRP, ADP final concentration 5×10^-6 M, read-out: IC50, ADP

CC(=O)Oc1ccccc1C(=O)O [Acetylsalicylic Acid (Aspirin), Acetylsalicylic Acid, reference compound]
IC50 (platelet aggregation; read-out: IC50, ADP): 2000 µM
IC50 (platelet aggregation; read-out: OC50, Arachidonic Acid): 180 µM

CCCCNC(=N)NC(=N)N [Buformin, 1-Butyl-biguanide, reference compound]
hypoglycemic activity (in words) (Alloxan Diabetes Mice [1]; 150 mg/kg): weak hypoglycemic activity
% Change in Blood Sugar Level (Alloxan Diabetes Mice [1]; 150 mg/kg): -15.3%
Blood Sugar Level Mean ± S.E. (Alloxan Diabetes Mice [1]; 150 mg/kg): 273.3 ± 28.7 mg/dL
hypoglycemic activity (in words) (Alloxan Diabetes Rats [2]; 100 mg/kg): significant hypoglycemic activity
% Change in Blood Sugar Level (Alloxan Diabetes Rats [2]; 100 mg/kg): -22.9%
Blood Sugar Level Mean ± S.E. (Alloxan Diabetes Rats [2]; 100 mg/kg): 275.5 ± 6.0 mg/dL

CN1CCN(c2nc(N)c3c(n2)CCCS3)CC1 [Compound A, 4-amino-2-(N-methylpiperazino)-7,8-dihydro-6H-thiopyrano[3,2-d]pyrimidine]
ED20 (Alloxan Diabetes Mice [3]): 60 mg/kg
ED20 (Normal Mice): 127 mg/kg
LD50 at 168 h ([4]; po, read-out: LD50, p.o.): 1450 mg/kg

CNc1nc(N2CCNCC2)nc2c1SCCC2 [Compound B, 4-methylamino-2-piperazino-7,8-dihydro-6H-thiopyrano[3,2-d]pyrimidine]
ED20 (Alloxan Diabetes Mice [3]): 53 mg/kg
ED20 (Normal Mice): 37 mg/kg
LD50 at 168 h ([4]; po, read-out: LD50, p.o.): 580 mg/kg

Nc1nc2c(c(N3CCNCC3)n1)SCCC2.O=C(O)/C=C\C(=O)O.O=C(O)/C=C\C(=O)O [Compound C, 2-amino-4-piperazino-7,8-dihydro-6H-thiopyrano[3,2-d]pyrimidine dimaleate]
ED20 (Alloxan Diabetes Mice [3]): 47 mg/kg
ED20 (Normal Mice): 230 mg/kg
LD50 at 168 h ([4]; po, read-out: LD50, p.o.): 1400 mg/kg

Nc1nc(N2CCNCC2)nc2c1SCCC2 [Compound D, 4-Amino-2-piperazino-7,8-dihydro-6H--thiopyrano[3,2-d]pyrimidine Dimaleate]
ED20 (Alloxan Diabetes Mice [3]): 52 mg/kg
ED20 (Normal Mice): 11 mg/kg
LD50 at 168 h ([4]; po, read-out: LD50, p.o.): 820 mg/kg

C1CSc2c(nc(N3CCNCC3)nc2N2CCCC2)C1.O=C(O)/C=C\C(=O)O [Compound E, 2-piperazino-4-pyrrolidino-7,8-dihydro-6H-thiopyrano[3,2-d]pyrimidine maleate]
hypoglycemic activity (in words) (Alloxan Diabetes Mice [1]; 200 mg/kg): significant hypoglycemic activity
% Change in Blood Sugar Level (Alloxan Diabetes Mice [1]; 200 mg/kg): -36.3%
Blood Sugar Level Mean ± S.E. (Alloxan Diabetes Mice [1]; 200 mg/kg): 205.5 ± 29.3 mg/dL
anti-histamine activity compared with Diphenhydramine (in words) [5]: substantially equal to that of Diphenhydramine
Kb [5]: 42.7 nM
LD50 at 168 h ([4]; iv, read-out: LD50, i.v.): 125 mg/kg
LD50 at 168 h ([4]; po, read-out: LD50, p.o.): 1170 mg/kg

CN1CCN(c2nc3c(c(N4CCCC4)n2)SCCC3)CC1.O=C(O)/C=C\C(=O)O [Compound F, 2-(N-methylpiperazino)-4-pyrrolidino-7,8-dihydro-6H-thiopyrano[3,2-d]pyrimidine maleate]
IC50 (platelet aggregation; [7]): 30 µM
Percent Inhibition, Collagen (platelet aggregation; rabbit PRP): 73%
anti-histamine activity compared with Diphenhydramine (in words) [5]: substantially equal to that of Diphenhydramine
Kb [5]: 20.4 nM
LD50 at 168 h ([4]; iv, read-out: LD50, i.v.): 100 mg/kg
LD50 at 168 h ([4]; po, read-out: LD50, p.o.): 1250 mg/kg

C1CSc2c(nc(N3CCNCC3)nc2N2CCOCC2)C1.O=C(O)/C=C\C(=O)O [Compound G, 4-morpholino-2-piperazino-7,8-dihydro-6H-thiopyrano[3,2-d]pyrimidine maleate]
hypoglycemic activity (in words) (Alloxan Diabetes Mice [1]; 200 mg/kg): significant hypoglycemic activity
% Change in Blood Sugar Level (Alloxan Diabetes Mice [1]; 200 mg/kg): -39.5%
Blood Sugar Level Mean ± S.E. (Alloxan Diabetes Mice [1]; 200 mg/kg): 195.2 ± 39.7 mg/dL
% Change in Blood Sugar Level (Alloxan Diabetes Rats [2]; 100 mg/kg): -30.2%
Blood Sugar Level Mean ± S.E. (Alloxan Diabetes Rats [2]; 100 mg/kg): 286.3 ± 76 mg/dL
hypoglycemic activity (in words) (Alloxan Diabetes Rats [2]; 100 mg/kg, maleate): significant hypoglycemic activity; also recorded: strongest activity
Blood Sugar Level Mean ± S.E., After 1 Hr. (Alloxan Diabetes Rats [6]; 1 hour after administration, fasted 4 hours): 141.3 ± 10.4
Blood Sugar Level Mean ± S.E., After 2 Hrs. (Alloxan Diabetes Rats [6]; 2 hours after administration, fasted 4 hours): 130.6 ± 12.6
Blood Sugar Level Mean ± S.E., After 3 Hrs. (Alloxan Diabetes Rats [6]; 3 hours after administration, fasted 4 hours): 130.3 ± 10.3
Blood Sugar Level Mean ± S.E., Before (Alloxan Diabetes Rats [6]; before administration (baseline)): 189.5 ± 9.4
IC50 (platelet aggregation; [8]): 150 µM
IC50 (platelet aggregation; [7]): 750 µM
Percent Inhibition, Collagen (platelet aggregation; rabbit PRP): 95%
LD50 at 168 h ([4]; iv, read-out: LD50, i.v.): 135 mg/kg
LD50 at 168 h ([4]; po, read-out: LD50, p.o.): 960 mg/kg

CN1CCN(c2nc3c(c(N4CCOCC4)n2)SCCC3)CC1 [Compound H, 2-(N-methylpiperazino)-4-morpholino-7,8-dihydro-6H-thiopyrano[3,2-d]pyrimidine]
IC50 (platelet aggregation; [8]): 1000 µM
IC50 (platelet aggregation; [7]): 8.4 µM
Percent Inhibition, Collagen (platelet aggregation; rabbit PRP): 65%
LD50 at 168 h ([4]; iv, read-out: LD50, i.v.): 200 mg/kg
LD50 at 168 h ([4]; po, read-out: LD50, p.o.): 1580 mg/kg

CCCCNC(=O)NS(=O)(=O)c1ccc(C)cc1 [Tolbutamide, 1-Butyl-3-(p-tolylsulfonyl)-urea, reference compound]
hypoglycemic activity (in words) (Alloxan Diabetes Mice [1]; 500 mg/kg): weak hypoglycemic activity
% Change in Blood Sugar Level (Alloxan Diabetes Mice [1]; 500 mg/kg): -13.7%
Blood Sugar Level Mean ± S.E. (Alloxan Diabetes Mice [1]; 500 mg/kg): 278.4 ± 25.7 mg/dL
hypoglycemic activity (in words) (Alloxan Diabetes Rats [2]; 300 mg/kg): significant hypoglycemic activity
% Change in Blood Sugar Level (Alloxan Diabetes Rats [2]; 300 mg/kg): -18.6%
Blood Sugar Level Mean ± S.E. (Alloxan Diabetes Rats [2]; 300 mg/kg): 285.2 ± 2.8 mg/dL
